{"source": "patent US10058525B2", "about": "“Application of chlorogenic acid in preparing medicines for treating lupus erythematosus” (SICHUAN JIUZHANG BIOLOGICAL SCIENCE AND TECHNOLOGY CO., LTD., priority 2015, dated 2018)", "key": {"ANA [1]": {"test_system": "ANA", "experiment": "Serologic detection of ANA by immunofluorescence on HEp-2 cell sheets, serum of UV + LPS lupus model mice", "format": "in vivo, BALB/c mice", "conditions": "chlorogenic acid high dose, ×200", "method": "The back of mice was shaved and acutely exposed to Ultraviolet of 2 h/d*3 d, with a distance of 30 cm. After exposure to UV, 2.5 mg/kg of LPS was administrated once by ip, and after 24 h, the model was successfully established; the mice in the normal control group received normal saline via ip. 24 h after injection of LPS (ip), medicines were given to the model mice by intragastric administration. Chlorogenic acid test groups received high, middle, and low doses of medicines, by intragastric administration at a respective dosage of 10 mg/kg*d, 20 mg/kg*d, and 40 mg/kg*d. The positive control group A received 2 mg/kg*d of artesunate by stomach perfusion, while the positive control group B received 1 mg/kg*d of prednisone by stomach perfusion. Mice in the model and normal control group all received 0.4 ml/mouse normal saline by gavage. After 15 days of administration, animals in each group were taken blood by separating eyeballs on days 14, 21, 28, and after cultured in water bath at 37° C. for 1 h, the blood sample was centrifugated at 2000 r/min for 5 min, to draw serum for use. On day 21, after blood collection, animals were sacrificed by dislocation, followed by collection of liver and kidney, and they were placed in fixative solutions of electron microscope and light microscrope, respectively. Serum of mice was diluted at 1:100 with special buffer solution of Shenzhen Hengjia, and then 200 μL of diluted serum was respectively added to the reactive tank with corresponding number, cultured in the incubator at 37° C. for 30 min, and washed with the buffer solution four times, 2 min for each time; 200 μL of diluted biotin goat anti-mouse IgG (1:100) was added, cultured in the incubator at 37° C. for 30 min, and then washed with the buffer solution four times, 2 min for each time; 100 μL of diluted HRP-avidin (1:100) was added, cultured in the incubator at 37° C. for 30 min, and then washed as mentioned-above; reactive solutions A and B were added till appearance of positive bands, then washed with the buffer solution. Compared with the standard bands of ENA polypeptide antibody spectrum in the same kit, if the positive bands appeared at 28/29,13.5 ku polypeptide; 15,16.5,38 kupolypeptide; 52 kupolypeptide and 47/48,45 kupolypeptide, that can be determined as anti-Sm, anti-Rib, anti-ssA, and anti-ssB positive antibody. Serum was diluted with PBS at 1:40, then 20-30 μL of diluted serum was dropped into the scrobiculus of HEp-2 cell sheets, each cell sheet for each group. In the process of dropping serum, it should be noted that the surface of cell sheet can not be touched. After addition of serum, cell sheet was placed in wet box and kept for 30 min at room temperature (25° C.). […]"}, "ANA [2]": {"test_system": "ANA", "experiment": "Serologic detection of ANA by immunofluorescence on HEp-2 cell sheets, serum of UV + LPS lupus model mice", "format": "in vivo, BALB/c mice", "set-up": "key: (+): positive; (−): negative; (++++): intenseintensity; (+++): stronger fluorescent intensity", "conditions": "day 14, intragastric", "method": "The back of mice was shaved and acutely exposed to Ultraviolet of 2 h/d*3 d, with a distance of 30 cm. After exposure to UV, 2.5 mg/kg of LPS was administrated once by ip, and after 24 h, the model was successfully established; the mice in the normal control group received normal saline via ip. 24 h after injection of LPS (ip), medicines were given to the model mice by intragastric administration. Chlorogenic acid test groups received high, middle, and low doses of medicines, by intragastric administration at a respective dosage of 10 mg/kg*d, 20 mg/kg*d, and 40 mg/kg*d. The positive control group A received 2 mg/kg*d of artesunate by stomach perfusion, while the positive control group B received 1 mg/kg*d of prednisone by stomach perfusion. Mice in the model and normal control group all received 0.4 ml/mouse normal saline by gavage. After 15 days of administration, animals in each group were taken blood by separating eyeballs on days 14, 21, 28, and after cultured in water bath at 37° C. for 1 h, the blood sample was centrifugated at 2000 r/min for 5 min, to draw serum for use. On day 21, after blood collection, animals were sacrificed by dislocation, followed by collection of liver and kidney, and they were placed in fixative solutions of electron microscope and light microscrope, respectively. Serum of mice was diluted at 1:100 with special buffer solution of Shenzhen Hengjia, and then 200 μL of diluted serum was respectively added to the reactive tank with corresponding number, cultured in the incubator at 37° C. for 30 min, and washed with the buffer solution four times, 2 min for each time; 200 μL of diluted biotin goat anti-mouse IgG (1:100) was added, cultured in the incubator at 37° C. for 30 min, and then washed with the buffer solution four times, 2 min for each time; 100 μL of diluted HRP-avidin (1:100) was added, cultured in the incubator at 37° C. for 30 min, and then washed as mentioned-above; reactive solutions A and B were added till appearance of positive bands, then washed with the buffer solution. Compared with the standard bands of ENA polypeptide antibody spectrum in the same kit, if the positive bands appeared at 28/29,13.5 ku polypeptide; 15,16.5,38 kupolypeptide; 52 kupolypeptide and 47/48,45 kupolypeptide, that can be determined as anti-Sm, anti-Rib, anti-ssA, and anti-ssB positive antibody. Serum was diluted with PBS at 1:40, then 20-30 μL of diluted serum was dropped into the scrobiculus of HEp-2 cell sheets, each cell sheet for each group. In the process of dropping serum, it should be noted that the surface of cell sheet can not be touched. After addition of serum, cell sheet was placed in wet box and kept for 30 min at room temperature (25° C.). After 30 min, the cell sheet was taken out, and serum was carefully washed out with PBS, then carefully washed twice with PBS, 5 min for each time; after washing, the remained PBS was removed by special absorbent paper of […] company (In this process, it should be noted that becoming dry of cell substrates will affect the results). 20-30 μL of diluted (PBS, 1:100) FITC goat anti-mouse IgG was added by dropping, and then incubated in wet box at room temperature for 30 min. After washing with PBS, steps were same to above. The remained PBS was removed by absorbent paper, and 1-2 drops of fluorescent mounting media were added to the cell sheet. The cover glass was mounted, observed under Olympus BH-2 universal microscope, and then photographed."}}}
{"smiles": "O=C(/C=C/c1ccc(O)c(O)c1)O[C@@H]1C[C@](O)(C(=O)O)C[C@@H](O)[C@H]1O", "note": "[Chlorogenic acid, 3-O-caffeoylquinic acid]", "values": [{"measurement": "fluorescence intensity of ANA (FIG. 2)", "setting": "ANA [1]; 14 days", "value": "decreases"}, {"measurement": "fluorescence intensity of ANA (FIG. 3)", "setting": "ANA [1]; 21 days", "value": "decreases"}, {"measurement": "fluorescence intensity of ANA (FIG. 4)", "setting": "ANA [1]; 28 days", "value": "decreases"}, {"measurement": "ANA", "setting": "ANA [2]; chlorogenic acid high dose", "value": "(+++)"}, {"measurement": "ANA", "setting": "ANA [2]; chlorogenic acid low dose", "value": "(++++)"}, {"measurement": "ANA", "setting": "ANA [2]; chlorogenic acid middle dose", "value": "(+++)"}]}
